In patent US12545688B2, “Camptothecin derivative and conjugate thereof” (SICHUAN BAILI PHARMACEUTICAL CO., LTD, priority 2019, dated 2026) one finds IC50 data, which are given here for four molecules.

Read-outs that look alike come from different tables or passages of the source.

Experiment in all cases: In vitro activity test, inhibition of target cell proliferation (MTS)
Holding throughout (type): cell-based

One assay concerns A431. Conditions: Homo sapiens, A-431, 96 h, read-out: IC50 for the inhibition of target cell proliferation in vitro, A431. The procedure:
(§1) • Cells: A431, SW620, BXPC3, Fadu from the Cell Bank of the Chinese Academy of • Sciences Cell • Culture medium DMEM: Gibco • FBS: BIOWEST
(§2) • Growth medium (with 10% FBS, Penicillin/streptomycin (100 U/mL) • Detection medium (with 1% FBS, Penicillin/streptomycin (100 U/mL)
(§3) Turn on the UV light of the biological safety cabinet 30 minutes in advance, and then turn on the ventilation for 3 minutes. The growth medium, detection medium, D-PBS and trypsin were preheated in a constant temperature water bath at 37° C., and then the surfaces were disinfected with alcohol and placed in a biological safety cabinet. Place the cells with a confluence of about 80% in a biological safety cabinet, aspirate the old medium, rinse with D-PBS, aspirate and discard, digest with trypsin for 2-3 min, add growth medium to neutralize, and centrifuge. 1200 rpm, 3 min. Aspirate the centrifugation supernatant, mix with 4 mL of detection medium, and count 100 uL (50 uL of cell fluid is taken out, 50 μL of Trypan Blue Stain is added and mixed, and counted after mixing). According to the pre-optimized cell plating density, 80 ul/well was plated in a 96-well plate. Only 80 uL detection medium was added to wells E11 and F11, and 150 uL of DPBS was added to the edge wells. 24 h after plating, add diluted antibody, 20 uL per well and set control, only add 20 uL detection medium in column 11, set 2 duplicate wells for each concentration, and mix on a cell vortex shaker after adding, 550 rpm, 3 min.
(§4) Dilution of the antibody solution: use the detection medium to prepare the test solution with an initial concentration of 5 uM and 300 uL in the first column of the V-shaped 96-well plate, and then add 240 uL of detection medium to the second to 10th columns respectively, take 60 uL from the first column of mixing and add it to the second column, mix up and down with a row gun for 10 times, discard the pipette tip, and operate the following 7 concentrations in sequence.
(§5) After 4 days, take out the MTS reagent, thaw at room temperature in the dark, vortex and mix well, add 20 μL of CellTiter One Solution Reagen MTS reagent per 100 μL of cell culture volume along the side wall of the well in the biological safety cabinet, and tap gently. After the MTS solution was evenly mixed, it was placed in a cell incubator for 2 h in the dark. After the reaction, the 96-well plate was taken out, the absorbance at OD490 nm was detected in a microplate reader, and the data was recorded, organized, analyzed and stored.

Another assay has as its system Bxpc-3. Particulars: Homo sapiens, read-out: IC50 for the inhibition of target cell proliferation in vitro, Bxpc-3. The method, then: as §1, §2, §3, §4, §5
For another assay, the system named is Fadu. Conditions: Homo sapiens, 96 h, read-out: IC50 for the inhibition of target cell proliferation in vitro, Fadu. The method, then:
as §1, §2, §3, §4, §5

The test system of the next assay is SW620. Particulars: Homo sapiens, SW-620, 96 h, read-out: IC50 for the inhibition of target cell proliferation in vitro, SW620. The method, then:
as §1, §2, §3, §4, §5

Setting [1] is: 96 h, Bxpc-3 cells, MTS after 4 days.

With `CC[C@@]1(O)C(=O)OCc2c1cc1n(c2=O)Cc2c-1nc1cc(F)c(C)c3c1c2[C@@H](N(C)C(=O)C1(O)CC1)CC3` [Compound 14], the IC50 in the assay with A431 was 93.3 nM; in the assay with Bxpc-3 (BXPC-3, 96 h), 153 nM; in the assay with Fadu (FaDu), 53 nM; with SW620 it was 200 to 1000 nM.

On to `CCCN(C(=O)CO)[C@H]1CCc2c(C)c(F)cc3nc4c(c1c23)Cn1c-4cc2c(c1=O)COC(=O)[C@]2(O)CC` [Compound 12], for which the IC50 with A431 was 1.1 nM; with Bxpc-3 (BXPC-3, 96 h), 1.6 to 8 nM; with Fadu (FaDu), 0.13 nM; with SW620, 200 to 1000 nM.

`CC[C@@]1(O)C(=O)OCc2c1cc1n(c2=O)Cc2c-1nc1cc(F)c(C)c3c1c2[C@@H](N(C)C(=O)CO)CC3` [Compound 6]: the IC50 in the assay with A431 (A431 cells, MTS after 4 days) amounted to 3.63 nM; in the assay with Bxpc-3 (setting [1]) it was 13.1 nM; in the assay on Fadu (Fadu cells, MTS after 4 days) it was 1.64 nM; in the assay with SW620 (SW620 cells, MTS after 4 days), 17.7 nM.

Regarding `CC[C@@]1(O)C(=O)OCc2c1cc1n(c2=O)Cc2c-1nc1cc(F)c(C)c3c1c2[C@@H](N(C)C(=O)[C@H](C)O)CC3` [Compound 16], the IC50 with A431 (A431 cells, MTS after 4 days) is 0.03 nM; in the assay on Bxpc-3 (setting [1]), 0.00256 to 0.0128 nM; in the assay on Fadu (Fadu cells, MTS after 4 days) it was 0.0014 nM; in the assay with SW620 (SW620 cells, MTS after 4 days) it was 0.064 to 0.32 nM.
